US20070270392A1, “Use of a Cyclopentenone Prostaglandin for Delaying the Onset and/or Preventing the Continuation of Labour” (Imperial College Innovations Limited, priority 2003, published 2007)

How the values were obtained:
Type in all cases: cell-based, human
NF-κB = test: Western immunoblot of NF-κB activation (p65, p50, IκB) in myometrial cells; parameters: Accumulation of phosphorylated IκBα: dose or concentration left out as unconfirmed
Method: Western immunoblots of nuclear or cytosolic protein extracts from (A) myometrial cells, (B) L− amnion cells, and (C) L+amnion cells treated with 15dPGJ2 or vehicle for 2 h+/−IL-1, stimulation (15 min). Blots probed with antibodies against p65, p50 or IκBα.
Western immunoblot of nuclear or cytosolic protein extracts from myometrial cells treated with PGA1 or vehicle for 2 h followed by IL-1β stimulation (15 min). Blots probed with antibodies against p65 or IκBa.
Analysis of nuclear protein extracts from myometrial cells treated with PGE2 or vehicle for 2 h+/−TNFα or IL-1b stimulation (15 min). (A) EMSA using consensus κB probe. (B) Western immunoblot probing for nuclear p65.
Western immunoblots of cytosolic extracts from myometrial cells (A) treated with 15dPGJ2 for 2 h+/−IL1b for 15 min; probed for IKK, and (B) treated with […] 15dPGJ2, […] MG132 or vehicle for 2 h, +/−IL-1β for 15 min; probed for IκBα.
(§1) Myometrial tissue was collected at term from the upper margin of uterine incision at the time of lower segment caesarean section either prior to the onset of labour (L−) or […] (L+). L+ samples were collected by Dr Mark Johnson and Dr S Soorrana at Chelsea & Westminster Hospital. Myometrial tissue was dissected, rinsed in PBS, and digested in serum-free DMEM containing 15 mg/ml collagenase 1A (Sigma), 15 mg/ml collagenase X, and 50 mg/ml bovine serum albumin for 45 min at 37° C. The cell suspension was filtered through a cell strainer, centrifuged at 400 g for 5 min, and the pellet re-suspended and plated out in DMEM, 10% FCS (Helena BioScience), 1% L-glutamine, 1% penicillin-streptomycin. Cells were used between passage numbers 1-4.
Nuclear and cytosolic protein extracts were obtained from cultured amnion cells as described by Schreiber et al (1989). For nuclear/cytosolic fractionation, confluent cell monolayers were scraped and lysed using a buffer containing 10 mM HEPES, 10 mM KCl, 0.1 mM EDTA, 0.1 mM EGTA, 2 mM DTT, 1% (v/v) NP-40 and complete protease inhibitor tablets (CPIs, Roche), diluted to manufacturer's instructions. Cell lysates were incubated on ice for 10 min and NP-40 added to a final concentration of 1% (v/v). Lysates were vortexed for 10 secs and centrifuged for 30 secs at 4° C., 12000 g. The supernatants were retained as the cytosolic protein extracts. The pellets were resuspended in buffer containing 10 mM HEPES, 10 mM KCl, 0.1 mM EDTA, 0.1 mM EGTA, 2 mM DTT, 400 mM NaCl, 1% NP-40 (v/v) and CPIs. Samples were shaken vigorously for 15 min in an ice bath. The nuclear protein extracts were obtained in the supernatant following a 5 min centrifugation at 4° C., 12000 g.
(§2) Protein samples (20-70 μg) were mixed with Laemmli sample buffer (1:1) containing β-mercaptoethanol (5%), and boiled for 5 min. Proteins were then separated by SDS-PAGE (12-14% gels) and transferred onto PVDF membrane (Amersham Pharmacia Biotech). The membranes were blocked overnight in 5% non-fat milk prepared in PBS-T buffer, at 4° C. The blots were incubated with the primary antibody in 1% non-fat milk in PBS-T buffer for 1 h, and washed three times (10 min each) in PBS-T with vigorous shaking. The blots were then incubated with HRP-conjugated secondary antibody (diluted 1:2000 in 1% non-fat milk in PBS-T buffer) for 1 h and washed three times (10 min each) in PBS-T. Signal detection was achieved using enhanced chemi-luminescence (ECL plus system, Amersham Pharmacia Biotech) according to manufacturer's instructions.
30-50 μg protein extracts were subjected to SDS-PAGE and Western immuno-blotting. Secondary antibodies were IgG-HRP and ECL Plus detection kit (Amersham Pharmacia Biotech, Amersham Place, Little Chalfont, Bucks, HP7 9NA) was used for visualisation.

COX-2 [1] = test: Western immunoblot of IL-1β-induced COX-2 protein expression in myometrial cells; conditions: treated 2 h, IL-1β 6 h
Method: as §1
Protein samples (20-70 μg) were mixed with Laemmli sample buffer (1:1) containing β-mercaptoethanol (5%), and boiled for 5 min. Proteins were then separated by SDS-PAGE (12-14% gels) and transferred onto PVDF membrane (Amersham Pharmacia Biotech). […] The blots were then incubated with HRP-conjugated secondary antibody (diluted 1:2000 in 1% non-fat milk in PBS-T buffer) for 1 h and washed three times (10 min each) in PBS-T. Signal detection was achieved using enhanced chemi-luminescence (ECL plus system, Amersham Pharmacia Biotech) according to manufacturer's instructions. […]

COX-2 [2] = test: IL-1β-induced COX-2 expression in L− and L+ amnion cells
Method: Placentae were obtained from patients at term either at elective Caesarean section prior to labour (L−) or following spontaneous labour onset and vaginal delivery (L+). Amnion cells were prepared as described in Bennett et al., (1989). Briefly, the amnion was separated from the placenta, washed 3× in PBS, cut into strips, and incubated in 0.51 mM EDTA in PBS for 15 min. The strips were washed in PBS 2× and digested with 2.5 mg/ml dispase in serum-free DMEM for 35 min at 37° C. The amnion was then shaken vigorously in DMEM, 10% FCS to dissociate the cells, the remaining strips discarded, and the cell suspension pelleted at 175 g for 10 min and cultured in DMEM, 10% FCS (Sigma), 1% L-glutamine, 1% penicillin-streptomycin.
as §2, with “The blots were incubated with the primary antibody in 1% non-fat milk in PBS-T buffer for 1 h, and washed three times (10 min each) in PBS-T with vigorous shaking.” left out, “instructions. […]” for “instructions.”

CCCCCC=CC=C1C(=O)C=C[C@@H]1CC=CCCCC(=O)O [15d-PGJ2, 15-deoxy-Δ^12,14prostaglandin J2]
IL-1β-induced IκBα and IκBβ degradation (NF-κB): inhibition
IL-1β-induced p50 phosphorylation (NF-κB): inhibited
IL-1β-induced p65 nuclear translocation (NF-κB): inhibited
Accumulation of phosphorylated IκBα (NF-κB; 2 h, IL-1β 15 min): not detected
IκBα phosphorylation (NF-κB; cytosolic extracts): inhibits
IL-1β-induced COX-2 expression (COX-2 [1]): inhibited
IL-1β-induced COX-2 expression (COX-2 [2]): inhibited

CCCCC[C@H](O)/C=C/[C@H]1C=CC(=O)[C@@H]1CCCCCCC(=O)O [PGA1, prostaglandin A1]
IL-1β-induced IκBα degradation (NF-κB): inhibited
IL-1β-induced p65 nuclear translocation (NF-κB): inhibited
